Measurements as given in patent US20240158446A1, “CYCLIC COMPOUND HAVING SELECTIVE INHIBITORY ACTION ON KRAS OVER HRAS AND NRAS” (CHUGAI SEIYAKU KABUSHIKI KAISHA, priority 2021, published 2024).
Read-outs that look alike come from different tables or passages of the source. Where a SMILES comes first, the peptide text is derived from it. Bridges are numbered along the chain shown (N, C = ends). [ ]: non-standard residue; d: D form. The star is where a group is joined. hPhe(3-Cl-4-CF3) = N[C@@H](CCc1ccc(C(F)(F)F)c(Cl)c1)C(=O)O; NPrPhe(4-CF3) = CCCN[C@@H](Cc1ccc(C(F)(F)F)cc1)C(=O)O; NPrPhe(4-Me) = CCCN[C@@H](Cc1ccc(C)cc1)C(=O)O; Pip(4,4-F2) = O=C(O)[C@@H]1CC(F)(F)CCN1; NMeGly(cPent) = CN[C@H](C(=O)O)C1CCCC1; Pro(4,4-F2) = O=C(O)[C@@H]1CC(F)(F)CN1; NMeD = CN[C@@H](CC(=O)O)C(=O)O; NMeL = CN[C@@H](CC(C)C)C(=O)O; NMeAbu = CC[C@H](NC)C(=O)O; Morpholide = C1CN(*)CCO1; NMeA = CN[C@@H](C)C(=O)O; Ac5c = NC1(C(=O)O)CCCC1; Aze = O=C(O)[C@@H]1CCN1; Ac4c = NC1(C(=O)O)CCC1; NEtG = CCNCC(=O)O; Sar = CNCC(=O)O

Legend:
[1] = target: GDP-bound KRAS wild-type protein (Homo sapiens, UniProt P01116); assay: Binding to KRAS by surface plasmon resonance (SPR), Single Cycle Kinetics; settings: GDP-bound KRAS wild-type protein, read-out: KRAS KD
Chain of GDP-bound KRAS wild-type protein (P01116 whole entry): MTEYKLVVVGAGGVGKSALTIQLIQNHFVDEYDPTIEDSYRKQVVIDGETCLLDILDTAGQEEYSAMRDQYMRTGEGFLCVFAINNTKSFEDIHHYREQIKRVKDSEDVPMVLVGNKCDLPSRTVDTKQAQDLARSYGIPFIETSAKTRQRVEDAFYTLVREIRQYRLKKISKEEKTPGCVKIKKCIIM

[2] = target: GDP-bound NRAS wild-type protein (Homo sapiens, UniProt P01111); assay: Binding to NRAS by surface plasmon resonance (SPR), Single Cycle Kinetics
Chain of GDP-bound NRAS wild-type protein (P01111 whole entry): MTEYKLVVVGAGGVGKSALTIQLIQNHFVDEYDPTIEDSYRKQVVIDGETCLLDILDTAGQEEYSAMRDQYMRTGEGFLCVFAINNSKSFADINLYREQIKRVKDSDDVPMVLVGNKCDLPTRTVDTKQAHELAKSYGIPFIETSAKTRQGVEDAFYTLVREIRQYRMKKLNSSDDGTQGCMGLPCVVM

[3] = target: GDP-bound HRAS wild-type protein (Homo sapiens, UniProt P01112); assay: Binding to HRAS by surface plasmon resonance (SPR), Single Cycle Kinetics
Chain of GDP-bound HRAS wild-type protein (P01112 whole entry): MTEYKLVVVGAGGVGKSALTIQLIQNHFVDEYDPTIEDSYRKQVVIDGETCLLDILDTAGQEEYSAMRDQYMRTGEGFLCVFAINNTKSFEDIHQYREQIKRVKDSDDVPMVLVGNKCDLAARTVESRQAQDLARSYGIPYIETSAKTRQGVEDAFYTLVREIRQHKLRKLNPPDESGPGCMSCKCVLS

[4] = SPR, GDP-bound NRAS wild-type protein vs GDP-bound KRAS wild-type protein
[5] = SPR, GDP-bound HRAS wild-type protein vs GDP-bound KRAS wild-type protein
[6] = SPR Single Cycle Kinetics, 1:1 binding model
[7] = SPR, Single Cycle Kinetics, 1:1 binding model
[8] = SPR, GDP-bound NRAS wild-type protein vs GDP-bound KRAS wild-type protein, KD ratio class
[9] = SPR, GDP-bound HRAS wild-type protein vs GDP-bound KRAS wild-type protein, KD ratio class

Kd [1, 6] [nM] | Compound | NRAS/KRAS (ratio of KD value for NRAS to KD value for KRAS) [2, 4] | HRAS/KRAS (ratio of KD value for HRAS to KD value for KRAS) [3, 5] | also measured
 | C=CCN1CC(=O)N(C)[C@H]2C/C=C\CCN(C2=O)[C@@H](Cc2ccc(C(F)(F)F)cc2)C(=O)N(C)CC(=O)N[C@@H](CCc2cc(F)c(C(F)(F)F)c(F)c2)C(=O)N2C[C@H](OCC)C[C@H]2C(=O)NC2(CC(C)(C)C2)C(=O)N(C)[C@@H](C2CCCC2)C(=O)N(C)[C@H](C(=O)N(C)C)CC(=O)N(C)[C@@H](CCC)C(=O)N[C@@H]([C@@H](C)CC)C1=O [PP2102] | A (a compound having 10 or more and less than 20 is denoted as A) | A (a compound having 10 or more and less than 20 is denoted as A) | Kd ([1]; SPR, Single Cycle Kinetics): 0.16 nM
0.44 | CCC(CC)[C@H]1C(=O)N(C)[C@H](C(=O)N(C)C)CC(=O)N(C)[C@H]2CCC/C=C/c3ccc(cc3)C[C@@H](C(=O)N(C)CC(=O)N[C@@H](CCc3ccc(Cl)c(Cl)c3)C(=O)N3CCC[C@H]3C(=O)NC3(CC(C)(C)C3)C(=O)N1C)N1CC/C=C\C[C@@H](C1=O)N(C)C(=O)CN(C)C(=O)[C@H]([C@@H](C)CC)NC2=O [PP2603] |  |  | NRAS/KRAS (ratio of KD value with respect to GDP-bound NRAS wild-type protein to KD value with respect to KRAS) ([2]; SPR KD ratio NRAS/KRAS, class symbols): AA (a compound having 20 or more is denoted as AA); HRAS/KRAS (ratio of KD value with respect to GDP-bound HRAS wild-type protein to KD value with respect to KRAS) ([3]; SPR KD ratio HRAS/KRAS, class symbols): A (a compound having 10 or more and less than 20 is denoted as A)
 | CCCN(C)C(=O)[C@@H]1CC(=O)N(C)[C@@H](CC2CC2)C(=O)N[C@@H]([C@@H](C)CC)C(=O)N(C)CC(=O)N(C)[C@H]2C/C=C\CCN(C2=O)[C@@H](Cc2ccc(C(F)(F)F)cc2)C(=O)N(C)CC(=O)N[C@@H](CCc2cc(F)c(C(F)(F)F)c(F)c2)C(=O)N2C[C@H](OCC)C[C@H]2C(=O)NC2(CCC2)C(=O)N(C)[C@@H](C2CCCC2)C(=O)N1C [PP1388] |  |  | Kd [1, 7]: 0.076 nM; NRAS/KRAS (ratio of KD value for NRAS to KD value for KRAS) [2, 8]: A (a compound having 10 or more and less than 20 is denoted as A); HRAS/KRAS (ratio of KD value for HRAS to KD value for KRAS) [3, 9]: B (a compound having 3 or more and less than 10 is denoted as B)
 | CCO[C@@H]1C[C@H]2C(=O)NC3(CCC3)C(=O)N(C)[C@@H](C3CCCC3)C(=O)N(C)[C@H](C(=O)N(C)C)CC(=O)N(C)[C@@H](CC3CCCC3)C(=O)N[C@@H]([C@@H](C)CC)C(=O)N(C)CC(=O)N(C)[C@H]3C/C=C\CCN(C3=O)[C@@H](Cc3ccc(F)cc3)C(=O)N(C)CC(=O)N[C@@H](CCc3cc(F)c(C(F)(F)F)c(F)c3)C(=O)N2C1 [PP1531, (2S,8S,12R,14S,20S,23S,27S,30S,36S,38Z)-20-cyclopentyl-27-(cyclopentylmethyl)-8-[2-[3,5-difluoro-4-(trifluoromethyl)phenyl]ethyl]-12-ethoxy-2-[(4-fluorophenyl)methyl]-N,N,4,19,22,26,32,35-octamethyl-30-[(1S)-1-methylpropyl]-3,6,9,15,18,21,25,28,31,34,42-undecaoxo-spiro[1,4,7,10,16,19,22,26,29,32,35-undecazatricyclo[34.5.1.0^10,14]dotetracont-38-ene-17,1′-cyclobutane]-23-carboxamide] |  |  | Kd [1, 7]: 0.12 nM; NRAS/KRAS (ratio of KD value for NRAS to KD value for KRAS) [2, 8]: A (a compound having 10 or more and less than 20 is denoted as A); HRAS/KRAS (ratio of KD value for HRAS to KD value for KRAS) [3, 9]: B (a compound having 3 or more and less than 10 is denoted as B)
 | CCO[C@@H]1C[C@H]2C(=O)NC3(CCC3)C(=O)N(C)[C@@H](C3CCCCC3)C(=O)N(C)[C@H](C(=O)N(C)C)CC(=O)N(C)[C@@H](CC)C(=O)N[C@@H]([C@@H](C)CC)C(=O)N(C)CC(=O)N(C)[C@H]3C/C=C\CCN(C3=O)[C@@H](Cc3ccc(C(F)(F)F)cc3)C(=O)N(C)CC(=O)N[C@@H](CCc3cc(F)c(C(F)(F)F)c(F)c3)C(=O)N2C1 [PP1086, (2S,8S,12R,14S,20S,23S,27S,30S,36S,38Z)-20-cyclohexyl-8-[2-[3,5-difluoro-4-(trifluoromethyl)phenyl]ethyl]-12-ethoxy-27-ethyl-N,N,4,19,22,26,32,35-octamethyl-30-[(1S)-1-methylpropyl]-3,6,9,15,18,21,25,28,31,34,42-undecaoxo-2-[[4-(trifluoromethyl)phenyl]methyl]spiro[1,4,7,10,16,19,22,26,29,32,35-undecazatricyclo[34.5.1.0^10,14]dotetracont-38-ene-17,1′-cyclobutane]-23-carboxamide] | AA (a compound having 20 or more is denoted as AA) | A (a compound having 10 or more and less than 20 is denoted as A) | Kd ([1]; SPR, Single Cycle Kinetics): 0.13 nM
3 | CCCN1C(=O)CN(C)C(=O)CN(CC)C(=O)[C@H]([C@@H](C)CC)NC(=O)[C@H](CC(C)C)N(C)C(=O)C[C@@H](C(=O)N2CCOCC2)N(C)C(=O)[C@H](C2CCCC2)N(C)C(=O)C2(CCCC2)NC(=O)[C@@H]2CC(F)(F)CCN2C(=O)[C@H](CCc2ccc(C(F)(F)F)c(Cl)c2)NC(=O)CN(C)C(=O)[C@@H]1Cc1ccc(C(F)(F)F)cc1 [PP0298] ([NMeL]I[NEtG][Sar][NPrPhe(4-CF3)][Sar][hPhe(3-Cl-4-CF3)][Pip(4,4-F2)][Ac5c][NMeGly(cPent)][NMeD]-Morpholide; lactam N-11) | B (a compound having 3 or more and less than 10 is denoted as B) | C (A compound having a KD ratio of 0.1 or more and less than 3 is denoted as C) | 
0.068 | CCCN1C(=O)CN(C)C(=O)CNC(=O)[C@H]([C@@H](C)CC)NC(=O)[C@H](CC(C)C)N(C)C(=O)C[C@@H](C(=O)N2CCOCC2)N(C)C(=O)[C@H](C2CCCC2)N(C)C(=O)C2(CCC2)NC(=O)[C@@H]2CC(F)(F)CN2C(=O)[C@H](CCc2ccc(C(F)(F)F)c(Cl)c2)NC(=O)CN(C)C(=O)[C@@H]1Cc1ccc(C(F)(F)F)cc1 [PP0395] ([NMeL]IG[Sar][NPrPhe(4-CF3)][Sar][hPhe(3-Cl-4-CF3)][Pro(4,4-F2)][Ac4c][NMeGly(cPent)][NMeD]-Morpholide; lactam N-11) | B (a compound having 3 or more and less than 10 is denoted as B) | C (A compound having a KD ratio of 0.1 or more and less than 3 is denoted as C) | 
0.13 | CCCN1C(=O)CN(C)C(=O)CN(C)C(=O)[C@H]([C@@H](C)CC)NC(=O)[C@H](CC)N(C)C(=O)C[C@@H](C(=O)N2CCOCC2)N(C)C(=O)[C@H](C2CCCC2)N(C)C(=O)C2(CCCC2)NC(=O)[C@@H]2CCCN2C(=O)[C@H](CCc2ccc(C(F)(F)F)c(Cl)c2)NC(=O)CN(C)C(=O)[C@@H]1Cc1ccc(C(F)(F)F)cc1 [PP0190] ([NMeAbu]I[Sar][Sar][NPrPhe(4-CF3)][Sar][hPhe(3-Cl-4-CF3)]P[Ac5c][NMeGly(cPent)][NMeD]-Morpholide; lactam N-11) | B (a compound having 3 or more and less than 10 is denoted as B) | B (a compound having 3 or more and less than 10 is denoted as B) | 
25 | CC[C@H](C)[C@@H]1NC(=O)[C@H](CC(C)C)N(C)C(=O)C[C@@H](C(=O)N2CCOCC2)N(C)C(=O)[C@H](CC(F)(F)F)N(C)C(=O)C2(CCCC2)NC(=O)[C@@H]2CCCN2C(=O)[C@H](CCc2cc(F)c(C(F)(F)F)c(F)c2)NC(=O)CN(C)C(=O)[C@H](Cc2ccc(C(F)(F)F)cc2)N2CCCCC[C@@H](C2=O)N(C)C(=O)CN(C)C1=O [PP0506] |  |  | NRAS/KRAS (ratio of KD value with respect to NRAS to KD value with respect to KRAS) [2, 4]: B (a compound having 3 or more and less than 10 is denoted as B); HRAS/KRAS (ratio of KD value with respect to HRAS to KD value with respect to KRAS) [3, 5]: B (a compound having 3 or more and less than 10 is denoted as B)
5 | CCCN1C(=O)CN(C)C(=O)[C@@H]2CCN2C(=O)[C@H]([C@@H](C)CC)NC(=O)[C@H](CC(C)C)N(C)C(=O)C[C@@H](C(=O)N2CCOCC2)NC(=O)[C@H](C2CCCC2)N(C)C(=O)C2(CCCC2)NC(=O)[C@@H]2CC(F)(F)CN2C(=O)[C@H](CCc2ccc(C(F)(F)F)c(Cl)c2)NC(=O)CN(C)C(=O)[C@@H]1Cc1ccc(C(F)(F)F)cc1 [PP0339] ([NMeL]I[Aze][Sar][NPrPhe(4-CF3)][Sar][hPhe(3-Cl-4-CF3)][Pro(4,4-F2)][Ac5c][NMeGly(cPent)]D-Morpholide; lactam N-11) | B (a compound having 3 or more and less than 10 is denoted as B) | B (a compound having 3 or more and less than 10 is denoted as B) | 
 | CCO[C@@H]1C[C@H]2C(=O)NC3(CC(F)(F)C3)C(=O)N(C)[C@@H](C3CCCC3)C(=O)N(C)[C@H](C(=O)N3CCOCC3)CC(=O)N(C)[C@@H](COC)C(=O)N[C@@H]([C@@H](C)CC)C(=O)N(C)CC(=O)N(C)[C@H]3CCCCCN(C3=O)[C@@H](Cc3ccc(C(F)(F)F)cc3)C(=O)N(C)CC(=O)N[C@@H](CCc3cc(F)c(C(F)(F)F)c(F)c3)C(=O)N2C1 [PP0843] | B (a compound having 3 or more and less than 10 is denoted as B) | B (a compound having 3 or more and less than 10 is denoted as B) | Kd ([1]; SPR, Single Cycle Kinetics): 0.52 nM
0.12 | CCCN1C(=O)[C@@H]2CCN2C(=O)[C@H](C)N(C)C(=O)[C@H]([C@@H](C)CC)NC(=O)[C@H](CC(C)C)N(C)C(=O)C[C@@H](C(=O)N2CCOCC2)N(C)C(=O)[C@H](C2CCCC2)N(C)C(=O)C2(CCCC2)NC(=O)[C@@H]2CCCN2C(=O)[C@H](CCc2ccc(C(F)(F)F)c(Cl)c2)NC(=O)CN(C)C(=O)[C@@H]1Cc1ccc(C)cc1 [PP0052] ([NMeL]I[NMeA][Aze][NPrPhe(4-Me)][Sar][hPhe(3-Cl-4-CF3)]P[Ac5c][NMeGly(cPent)][NMeD]-Morpholide; lactam N-11) | C (A compound having a KD ratio of 0.1 or more and less than 3 is denoted as C) | B (a compound having 3 or more and less than 10 is denoted as B) | 
